Tests used:
H460 carcinoma cells = assay: Transwell cell migration (metastatic activity); format: cell-based, human; settings: AOX 5 and 10 μM, 16 hours
Method: Cell migration assays were performed in Transwells (Corning Inc., 8.0-μm pore size). For migration assay, 2·10^4 cells in serum-free medium were added to the upper wells. Media containing 10% FBS were added to the lower wells. Cells that migrated through the filter after 16 hours were stained with 0.2% crystal violet and counted using the software Image J.
The Transwell test of cell migration has been utilized for this assay and the migration of H460 carcinoma cells has been measured in the presence of two different concentrations of AOX (5 and 10 μM) and compared to the effect of 100 μM N-acetyl cystein (NAC) as a positive control of cytosolic ROS production (FIG. 25).

[1] = test system: retina (outer nuclear layer); assay: Progressive light-induced retinal degeneration; format: in vivo, rat; settings: 6 mg/kg/day, three times a day, 7 days
Method: Rats bred under cyclic low-intensity lighting were transferred to cyclic high-intensity lighting for one week and divided into 3 groups (non-treated animals, vehicle-treated animals and AOL-treated animals). Treated animals received injections of vehicle or AOL at a dose of 6 mg/kg/day, three times a day for the 7 days of the transfer (30 minutes before light-ON; at […]). After one week, animals were transferred in the dark (D0).
A control group (“untransferred”) was not transferred to cyclic high-intensity lighting but received the same treatment as described above: injections of vehicle or AOL three times a day for 7 days, followed by a transfer in the dark (D0).
Animals were then sacrificed for histological analysis.

[2] = test system: isolated pancreatic islets from mice; assay: Glucose-stimulated insulin secretion (GSIS) in isolated pancreatic islets; format: cell-based, mouse; settings: AOL 10 and 20 μM, 1 hour
Method: Pancreatic islets were isolated using the collagenase digestion method. Briefly, pancreas was inflated with Hanks solution containing 0.33 mg/mL of collagenase (Sigma-Aldrich), 5.6 mM glucose and 1% bovine serum albumin, pH 7.35, removed and kept at 37° C. for 6-9 minutes. After tissue digestion and exocrine removal by three consecutive washes, the islets were manually collected, under a binocular magnifier. Islets were left recovering from digestion by culturing for 20-24 hours in RPMI-1640 medium containing 11 mM glucose (Invitrogen, CA, USA) and supplemented with 2 mM glutamine, 200 IU/mL penicillin, 200 μg/mL streptomycin and 8% fetal bovine serum stripped with charcoal-dextran (Invitrogen).
For each static GSIS experiment, islets from two mice were first incubated for 2 hours at 37° C. in 3 mL Krebs-bicarbonate buffer solution (in mM): […] and 3 glucose, equilibrated with a mixture of 95% 02:5% C02, pH 7.4. […] Insulin secretion in each well was calculated as ng of insulin per islet and per hour of incubation, and then expressed as percentage of insulin secretion in 11 mM glucose vehicle group, which was considered 100%.

[3] = cited from earlier work
MPTP-treated mice = assay: Sub-chronic MPTP mouse model of Parkinson's disease, TH-positive neurons in the substantia nigra; format: in vivo; settings: AOL 5 mg/kg i.p., 11 consecutive days; p<0.01
Method: In this study, the potential neuroprotective effects of AOL were assessed by counting the number of tyrosine hydroxylase (TH)-positive neurons in the substantia nigra (SN) in the sub-chronic 1-methyl-4-phenyl-1,2,3,6-tetrahydropyridine (MPTP) mouse model of Parkinson's disease. Mice were treated with AOL (5 mg/kg; i.p.) or vehicle for 11 consecutive days. MPTP (20 mg/kg; i.p.) or saline was administered on treatment days 4-8. All mice were killed on day 12 following final administration of treatment.
For vehicle conditions, the test item was dissolved in 0.5% DMSO/0.95% Tween 20 in saline while AOL was administered intraperitoneally (i.p.) at the dose of 5 mg/kg. […]
Unbiased stereological analysis was used to estimate the number of TH-immunopositive (TH+) neurons (Mercator, Explora Nova, La Rochelle, France). The boundaries of the SN were determined by examining the size and shape of the different TH+ neuronal groups. The volume was calculated by using the formula: V=ΣS td; where ΣS is the sum of surface areas, t is the average section thickness and d is the number of slices between two consecutive sections measured. […] The following formula was used to estimate the number of TH+ neurons: N=V(SN) (ΣQ−/ΣV(dis)); where N is the estimation of cell number, V is the volume of the SN, ΣQ− is the number of cells counted in the dissectors, and ΣV(dis) is the total volume of all the dissectors. […]

Compound | metastatic activity (cells crossing the membrane) (H460 carcinoma cells) | thickness of the outer nuclear layer (ONL) ([1]; transferred to cyclic high-intensity lighting) | thickness of the outer nuclear layer (ONL) ([1]; untransferred control group) | GSIS increase as compared to the 11 mM glucose vehicle group [2] | bioavailability [3] | increase of the number of TH+ cells in the SN compared to vehicle in MPTP-treated mice (MPTP-treated mice)
Oc1ccc(-c2cc(=S)ss2)cc1 [AOX, 5-(4-hydroxyphenyl)-3H-1,2-dithiole-3-thione] | absence of induction of metastatic activity | – | – | – | – | –
COc1ccc(-c2cc(=S)ss2)cc1 [AOL, 5-(4-methoxyphenyl)-3H-1,2-dithiole-3-thione] | – | significant increase of the thickness of the ONL | no effect on ONL's thickness | 65-75% | known to be very short | 44%
